Results from US4672036A, “Pure cultures of Kibdelsporangium aridum Shearer gen. nov., sp. nov. ATCC 39323 and mutants thereof” (SmithKline Beckman Corporation, priority 1985, dated 1987).
Like-named read-outs stand apart in the source and are kept apart here.

Columns and labels:
K. aridum = experiment: susceptibility of K. aridum to antibiotics, disk diffusion method; format: cell-based, Kibdelosporangium aridum; conditions: for zone of inhibition at 5 µg/disc: Kibdelosporangium aridum, 168 h
Method: Susceptibility of K. aridum to antibiotics was examined by placing BBL susceptibility disks on nutrient agar plates seeded with K. aridum as an overlay. Diameters of the zones of inhibition were measured after incubation for one week at 28° C.
Chlortetracycline ([…]) produced 18 mm zones of inhibition; tetracycline (5 μg) 11-12 mm zones; rifampin (5 μg) 11-15 mm zones; novobiocin (5 μg) 27-28 mm zones. All zones of inhibition contained at least a few resistant colonies.

rumen in vitro model = rumen in vitro model (growth promotant activity); set-up: species or system steer
Method: The protocol for the rumen in vitro model is analogous to the protocol for the swine in vitro model with the following modifications:
(1) A 400 kg steer is surgically prepared with a rumen cannula.
(2) The animal is fed one time a day with the following ration:
(3) Manipulation of VFA production is described as the production ratio of propionate as a percentage of total VFA produced.
(4) Sampling of the material, via the cannula, is at 120 minutes post feeding.

Swine in vitro model = experiment: swine in vitro model (growth promotant activity)
[1] = rye diet; for Feed/Gain 3-10: days 3-10; for Feed/Gain 3-17: days 3-17; for Feed/Gain 10-17: days 10-17

CO[C@@H]1[C@@H](OC(N)=O)[C@@H](O)[C@H](Oc2ccc3c(O)c(NC(=O)c4ccc(O)c(CC=C(C)C)c4)c(=O)oc3c2C)OC1(C)C [novobiocin]
zone of inhibition at 5 µg/disc (K. aridum): 27 to 28 mm

CC1(C)S[C@@H]2[C@H](NC(=O)Cc3ccccc3)C(=O)N2[C@H]1C(=O)O [penicillin]
susceptibility of K. aridum (K. aridum; disk 10 units): resistant

CO[C@H]1/C=C/O[C@@]2(C)Oc3c(C)c(O)c4c(O)c(c(/C=N/N5CCN(C)CC5)c(O)c4c3C2=O)NC(=O)/C(C)=C\C=C\[C@H](C)[C@H](O)[C@@H](C)[C@@H](O)[C@@H](C)[C@H](OC(C)=O)[C@@H]1C [rifampin]
zone of inhibition at 5 µg/disc (K. aridum): 11 to 15 mm

[H]/N=C(/N)N[C@H]1[C@H](O)[C@@H](O)[C@H](O[C@@H]2O[C@@H](C)[C@](O)(C=O)[C@H]2O[C@@H]2O[C@@H](CO)[C@H](O)[C@@H](O)[C@@H]2NC)[C@@H](N/C(N)=N\[H])[C@@H]1O [streptomycin]
susceptibility of K. aridum (K. aridum; disk 10 μg): resistant

CN(C)C1C(=O)C(C(N)=O)=C(O)C2(O)C(=O)C3=C(O)c4c(O)cccc4C(C)(O)C3CC12 (centres unmarked) [tetracycline]
zone of inhibition at 5 µg/disc (K. aridum): 11 to 12 mm

NC[C@H]1O[C@H](O[C@H]2[C@H](O)[C@@H](O[C@H]3O[C@H](CO)[C@@H](O)[C@H](N)[C@H]3O)[C@H](N)C[C@@H]2N)[C@H](N)C[C@@H]1O [tobramycin]
susceptibility of K. aridum (K. aridum; disk 10 μg): resistant

Avoparcin
GLU (glucose) (rumen in vitro model; 0.5 ppm): 116 % Control
Propionate % (rumen in vitro model; 0.5 ppm): 106 % Control
GLU (glucose) (rumen in vitro model; 5.0 ppm): 166 % Control
Propionate % (rumen in vitro model; 5.0 ppm): 121 % Control
GLU (glucose) (rumen in vitro model; 50.0 ppm): 141 % Control
Propionate % (rumen in vitro model; 50.0 ppm): 132 % Control

Virginiamycin
LAC (L-lactic acid) (Swine in vitro model): 81 % Control
GLU (glucose) (Swine in vitro model; 1.67 ppm): 182 % Control
LAC (L-lactic acid) (Swine in vitro model; 1.67 ppm): 70 % Control
LYS (lysine) (Swine in vitro model; 1.67 ppm): 82 % Control
GLU (glucose) (Swine in vitro model; 16.67 ppm): 191 % Control
LAC (L-lactic acid) (Swine in vitro model; 16.67 ppm): 76 % Control
LYS (lysine) (Swine in vitro model; 16.67 ppm): 127 % Control
GLU (glucose) (Swine in vitro model; 166.67 ppm): 197 % Control
LYS (lysine) (Swine in vitro model; 166.67 ppm): 163 % Control
Weight Day 10 ([1]; 10.0 PPM): 103.8 % of Control
Weight Day 17 ([1]; 10.0 PPM): 116.0 % of Control
Feed/Gain 3-10 ([1]; 10.0 PPM): 97.4 % of Control
Feed/Gain 3-17 ([1]; 10.0 PPM): 90.4 % of Control
Feed/Gain 10-17 ([1]; 10.0 PPM): 83.6 % of Control
Weight Day 10 ([1]; 50.0 PPM): 105.0 % of Control
Weight Day 17 ([1]; 50.0 PPM): 121.3 % of Control
Feed/Gain 3-10 ([1]; 50.0 PPM): 93.2 % of Control
Feed/Gain 3-17 ([1]; 50.0 PPM): 83.2 % of Control
Feed/Gain 10-17 ([1]; 50.0 PPM): 74.6 % of Control

gentamicin
susceptibility of K. aridum (K. aridum; disk 10 μg): resistant
